pEC50: −log10 of the molar value.
Experiments:
[1] = molecular target: T1, Glucose-dependent insulinotropic receptor (Homo sapiens, UniProt Q8TDV5); assay: Agonist activity at human GPR119 expressed in HEK293 cells assessed as stimulation of cAMP level measured after 60 mins by HTRF assay; type: functional, cell-based
T1 sequence (Q8TDV5 whole entry): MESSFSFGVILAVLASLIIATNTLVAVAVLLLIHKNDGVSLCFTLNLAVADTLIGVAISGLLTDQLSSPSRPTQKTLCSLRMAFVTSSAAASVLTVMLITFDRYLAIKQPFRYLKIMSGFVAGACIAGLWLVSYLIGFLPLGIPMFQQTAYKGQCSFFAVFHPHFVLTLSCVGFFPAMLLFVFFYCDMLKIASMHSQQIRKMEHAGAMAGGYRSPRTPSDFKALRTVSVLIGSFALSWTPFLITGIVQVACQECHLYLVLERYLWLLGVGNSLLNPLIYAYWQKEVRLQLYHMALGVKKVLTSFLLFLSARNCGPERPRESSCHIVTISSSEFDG

[2] = molecular target: T2, Glucose-dependent insulinotropic receptor (Homo sapiens) (UniProt Q8TDV5); assay: Agonist activity at human GPR119 expressed in HEK293 cells assessed as stimulation of cAMP level measured after 60 mins by HTRF assay relative to OEA; type: functional, cell-based
T2 sequence (whole entry): T1 sequence (Q8TDV5 whole entry)

| Compound | pEC50 [1] | Emax [2] [%] |
| --- | --- | --- |
| CC(C)(C)OC(=O)N1[C@@H]2CC[C@@H]1CC(Oc1ncnc(Oc3ccccc3Cl)c1[N+](=O)[O-])C2 (relative stereo) | 7.35 | 89.8 |
| CC(C)(C)OC(=O)N1[C@@H]2CC[C@@H]1CC(Nc1ncnc(Nc3ccccc3C#N)c1[N+](=O)[O-])C2 (relative stereo) | < 5.70 | 46.2 |
| CS(=O)(=O)c1ccc(Nc2ncnc(NC3C[C@H]4CC[C@H](C3)N4S(=O)(=O)c3ccc(F)cc3)c2[N+](=O)[O-])c(F)c1 (some centres undefined) | < 5.70 | 24.8 |
| CS(=O)(=O)c1ccc(Nc2ncnc(OC3C[C@H]4CC[C@H](C3)N4S(=O)(=O)c3ccc(F)cc3)c2[N+](=O)[O-])c(F)c1 (some centres undefined) | 8.46 | 88.8 |
| CC(C)OC(=O)N1[C@@H]2CC[C@@H]1CC(Oc1ncnc(Nc3ccc(S(C)(=O)=O)cc3F)c1[N+](=O)[O-])C2 (relative stereo) | 9.22 | 103 |
| CC(C)(C)OC(=O)N1[C@@H]2CC[C@@H]1CC(Nc1ncnc(Oc3ccccc3Cl)c1[N+](=O)[O-])C2 (relative stereo) | < 5.70 | 37.2 |
| CC(C)(C)OC(=O)N1[C@@H]2CC[C@@H]1CC(Nc1ncnc(Nc3ccc(C#N)cc3Cl)c1[N+](=O)[O-])C2 (relative stereo) | 6.69 | 59 |
| CC(C)(C)OC(=O)N1[C@@H]2CC[C@@H]1CC(Oc1ncnc(Nc3ccc(S(C)(=O)=O)cc3F)c1[N+](=O)[O-])C2 (relative stereo) | 8.82 | 116 |
| CC(C)(C)OC(=O)N1[C@@H]2CC[C@@H]1CC(Nc1ncnc(Nc3ccc(C#N)cc3F)c1[N+](=O)[O-])C2 (relative stereo) | 8.89 | 114 |
| CS(=O)(=O)c1ccc(Nc2ncnc(OC3C[C@H]4CC[C@H](C3)N4S(C)(=O)=O)c2[N+](=O)[O-])c(F)c1 (relative stereo) | 8.80 | 117 |

Second part, the compound after the results:

| pEC50 [1] | Emax [2] [%] | Compound |
| --- | --- | --- |
| 8.82 | 99 | CC(C)(C)OC(=O)N1[C@@H]2CC[C@@H]1CC(Nc1ncnc(Nc3ccc(S(C)(=O)=O)cc3F)c1[N+](=O)[O-])C2 (relative stereo) |
| < 5.70 | 32.5 | CCOC(=O)N1[C@@H]2CC[C@@H]1CC(Nc1ncnc(Nc3ccc(S(C)(=O)=O)cc3F)c1[N+](=O)[O-])C2 (relative stereo) |
| < 5.70 | 21.3 | CS(=O)(=O)c1ccc(Nc2ncnc(OC3C[C@H]4CC[C@H](C3)N4C(=O)OCC3CC3)c2[N+](=O)[O-])c(F)c1 (relative stereo) |
| < 5.70 | 49.5 | CS(=O)(=O)c1ccc(Nc2ncnc(NC3C[C@H]4CC[C@H](C3)N4S(C)(=O)=O)c2[N+](=O)[O-])c(F)c1 (relative stereo) |
| < 5.70 | 25.1 | CS(=O)(=O)c1ccc(Nc2ncnc(NC3C[C@H]4CC[C@H](C3)N4C(=O)OCC3CC3)c2[N+](=O)[O-])c(F)c1 (relative stereo) |
| 8.21 | 54.5 | CC(C)OC(=O)N1[C@@H]2CC[C@@H]1CC(Nc1ncnc(Nc3ccc(S(C)(=O)=O)cc3F)c1[N+](=O)[O-])C2 (relative stereo) |
| 8.85 | 116 | CCOC(=O)N1[C@@H]2CC[C@@H]1CC(Oc1ncnc(Nc3ccc(S(C)(=O)=O)cc3F)c1[N+](=O)[O-])C2 (relative stereo) |

Source: ChEMBL document CHEMBL3868606, “Novel 5-nitropyrimidine derivatives bearing endo-azabicyclic alcohols/amines as potent GPR119 agonists” (Bioorg Med Chem, 2017)
